The NIST ThermoML archive (doi:10.1021/je100610v)

Assay: molar heat capacity at constant pressure; xn = mol fraction of the nth substance listed
Conditions: 101 kPa, Liquid

ClCCCCCCCl [1,6-dichlorohexane] + CCCCCCC
molar heat capacity at constant pressure [J/K/mol]
Conditions | x1 = 0.1033 | x1 = 0.2005 | x1 = 0.3004 | x1 = 0.397 | x1 = 0.5025 | x1 = 0.5978 | x1 = 0.7012 | x1 = 0.7975 | x1 = 0.8993 | x1 = 1
293.15 K | 224.18 | 225.58 | 226.93 | 228.73 | 230.53 | 232.22 | 233.79 | 235.58 | 237.46 | 239.21
294.15 K | 224.47 | 225.71 | 227.22 | 229.08 | 230.89 | 232.55 | 234 | 235.86 | 237.73 | 239.5
295.15 K | 224.85 | 226.27 | 227.61 | 229.51 | 231.34 | 232.94 | 234.33 | 236.23 | 238.1 | 239.69
296.15 K | 225.28 | 226.73 | 227.98 | 229.89 | 231.84 | 233.25 | 234.73 | 236.51 | 238.39 | 240.02
297.15 K | 225.7 | 227.04 | 228.31 | 230.27 | 231.98 | 233.48 | 235.05 | 236.81 | 238.57 | 240.35
298.15 K | 226.02 | 227.35 | 228.65 | 230.41 | 232.13 | 233.77 | 235.36 | 237.1 | 238.92 | 240.64
299.15 K | 226.42 | 227.84 | 228.96 | 230.75 | 232.24 | 234 | 235.65 | 237.33 | 239.06 | 240.85
300.15 K | 226.82 | 228.08 | 229.21 | 231.06 | 232.49 | 234.22 | 236.05 | 237.68 | 239.39 | 241.15
301.15 K | 227.16 | 228.49 | 229.61 | 231.57 | 232.94 | 234.6 | 236.34 | 238.04 | 239.79 | 241.46
302.15 K | 227.48 | 228.83 | 230 | 231.8 | 233.35 | 234.96 | 236.63 | 238.29 | 240.08 | 241.8
303.15 K | 227.86 | 229.13 | 230.36 | 232.08 | 233.73 | 235.31 | 236.93 | 238.61 | 240.37 | 242.06
304.15 K | 228.19 | 229.46 | 230.7 | 232.56 | 234.04 | 235.48 | 237.2 | 238.86 | 240.64 | 242.34
305.15 K | 228.57 | 229.83 | 230.91 | 232.74 | 234.33 | 235.88 | 237.53 | 239.21 | 240.92 | 242.62
306.15 K | 228.88 | 230.1 | 231.36 | 233.13 | 234.4 | 236.03 | 237.84 | 239.44 | 241.2 | 242.83
307.15 K | 229.3 | 230.51 | 231.65 | 233.51 | 235.07 | 236.5 | 238.18 | 239.76 | 241.48 | 243.21
308.15 K | 229.71 | 230.91 | 232.08 | 233.76 | 235.33 | 236.85 | 238.49 | 240.12 | 241.83 | 243.49
309.15 K | 230.05 | 231.19 | 232.35 | 234.03 | 235.45 | 237.17 | 238.74 | 240.37 | 242.06 | 243.73
310.15 K | 230.4 | 231.55 | 232.73 | 234.35 | 235.77 | 237.52 | 239.07 | 240.64 | 242.36 | 244
311.15 K | 230.86 | 231.97 | 233.11 | 234.88 | 236.41 | 237.89 | 239.43 | 241.08 | 242.73 | 244.35
312.15 K | 231.16 | 232.33 | 233.45 | 235.01 | 236.75 | 238.16 | 239.72 | 241.32 | 243.02 | 244.68
313.15 K | 231.55 | 232.68 | 233.79 | 235.43 | 236.93 | 238.39 | 240.06 | 241.64 | 243.28 | 244.91
